Literature values in patent US12458625B2, “Methods and compositions for soft anticholinergic esters” (Bodor Laboratories, Inc., priority 2015, dated 2025).

Conditions: solid oral form

## C[N+]1(C)CCC(OC(=O)C(O)(c2ccccc2)C2CCCC2)C1 (stereo not drawn) [glycopyrrolate]
children
  reducing drooling: effective in reducing drooling
children, most with cerebral palsy
  dropped out of the study because of adverse effects to the medication: over 20%
Most with cerebral palsy
  children affected by adverse events: 69%
